Legend:
J2M macrophage cells = experiment: TNFα production in LPS-stimulated J2M macrophages (Example 10); format: cell-based; conditions: 2 ng/mL LPS
Experimental: An assay to determine the inhibition of macrophage TNFα by varying concentrations of Compound 106 was carried out as follows.
J2M macrophage cells were plated at 2×10^5 cells/well in 24 well plates. The next day the media was changed and Compound 106 or PBS carrier were added to the wells at the indicated concentrations for 30 min prior to stimulation of the cells with 2 ng/mL lipopolysaccharide (LPS). LPS activation of macrophages leads to production of TNFa which can be detected in the culture supernatant and quantified by ELISA. The results are depicted in a graph in FIG. 2.

Mast cells = experiment: Stimulation of mast cells by FcεRI crosslinking (Assay 4); format: cell-based; conditions: test compound 30 min prior to DNP-HSA
Experimental: Assay 1) In vitro testing in a SHIP enzyme assay. Test compounds were dissolved in a suitable solvent (e.g. EtOH, DMSO and others) and diluted into aqueous buffer (20 mM Tris HCl, pH 7.5 and 10 mM MgCl2). SHIP enzyme assays were performed in 96-well microtitre plates with 10 ng of enzyme/well in a total volume of 25 μL of 20 mM Tris HCl, pH 7.5 and 10 mM MgCl2. SHIP enzyme was incubated with test extracts (provided in solvent) or vehicle for 15 min at 23° C. before the addition of 100 μM inositol-1,3,4,5-tetrakisphosphate (Echelon Biosciences Inc, Salt Lake City, Utah). After 20 min at 37° C. and the amount of inorganic phosphate released assessed by the addition of Malachite Green reagent and absorbance measurement at 650 nm. Assay 2) Macrophage TNF-α production. J774.1a macrophage cells were treated with 10 μg/mL of test compound dissolved in solvent (e.g. cyclodextran) for 40 minutes prior to the addition of 100 ng/mL LPS. Culture supernatants were collected after 2 hr and 5 hr for TNF-α determination by ELISA. Assay 3) Macrophage TNF-α NO assay. J774.1a macrophage cells were treated with 10 μg/ml of test compound dissolved in solvent for 40 minutes prior to the addition of LPS. Culture supernatants were collected after 24 hr. for determination of NO concentration using the Griess reagent. Assay 4) Stimulation of mast cells by FcεRI crosslinking. Mast cells were pre-loaded overnight in BMMC medium lacking IL-3 with 0.1 μg/ml anti-DNP IgE (SPE-7, Sigma, Oakville, Ont). For calcium flux measurements, cells were incubated with 2 μM fura 2-acetoxymethyl ester (Molecular Probes, Eugene, Oreg.) in Tyrode's buffer at 23° C. for 45 min. Cells were then washed and incubated in the presence of the test compound 30 min prior to stimulation with the indicated concentration of DNP-human serum albumin (DNP-HSA). Calcium influx was monitored by spectrofluorometry as described previously. For analysis of intracellular signaling, cells were pre-loaded with anti-DNP IgE as above, pre-treated with the test compound for 30 min at 37° C. and stimulated with 20 ng/ml DNP-HSA for 5 min. Total cell lysates were then prepared and analyzed for phospho-PKB, phospho-p38^MAPK, phospho-MAPK, Grb-2 (Cell Signalling, Mississauga, Ont) and SHIP^6 by immunoblot analysis. Assay 5) Mouse acute cutaneous anaphylaxis model. […] The ability of SHIP activators to reduce tumor cell survival was assessed in MM cell lines treated with the test compound. The lines OPM1, OPM2, MM.1S and RPMI 8226 were plated at a density of 1×10^5 cells/mL in 200 μL of medium with various concentrations of the test compound, and viable cell numbers were determined on day 3 and day 5 by trypan blue exclusion. […]

J774.1a macrophage cells [1] = experiment: Macrophage TNF-α production (Assay 2); format: cell-based; conditions: 10 μg/mL test compound, 100 ng/mL LPS, supernatants after 2 hr and 5 hr; also: key: a ‘+’ indicates a positive result for desired activity; a ‘−’ indicates a negative result for desired activity
Experimental: (§1) Assay 1) In vitro testing in a SHIP enzyme assay. Test compounds were dissolved in a suitable solvent (e.g. EtOH, DMSO and others) and diluted into aqueous buffer (20 mM Tris HCl, pH 7.5 and 10 mM MgCl2). SHIP enzyme assays were performed in 96-well microtitre plates with 10 ng of enzyme/well in a total volume of 25 μL of 20 mM Tris HCl, pH 7.5 and 10 mM MgCl2. SHIP enzyme was incubated with test extracts (provided in solvent) or vehicle for 15 min at 23° C. before the addition of 100 μM inositol-1,3,4,5-tetrakisphosphate (Echelon Biosciences Inc, Salt Lake City, Utah). After 20 min at 37° C. and the amount of inorganic phosphate released assessed by the addition of Malachite Green reagent and absorbance measurement at 650 nm. Assay 2) Macrophage TNF-α production. J774.1a macrophage cells were treated with 10 μg/mL of test compound dissolved in solvent (e.g. cyclodextran) for 40 minutes prior to the addition of 100 ng/mL LPS. Culture supernatants were collected after 2 hr and 5 hr for TNF-α determination by ELISA. Assay 3) Macrophage TNF-α NO assay. J774.1a macrophage cells were treated with 10 μg/ml of test compound dissolved in solvent for 40 minutes prior to the addition of LPS. Culture supernatants were collected after 24 hr. for determination of NO concentration using the Griess reagent. Assay 4) Stimulation of mast cells by FcεRI crosslinking. Mast cells were pre-loaded overnight in BMMC medium lacking IL-3 with 0.1 μg/ml anti-DNP IgE (SPE-7, Sigma, Oakville, Ont). For calcium flux measurements, cells were incubated with 2 μM fura 2-acetoxymethyl ester (Molecular Probes, Eugene, Oreg.) in Tyrode's buffer at 23° C. for 45 min. Cells were then washed and incubated in the presence of the test compound 30 min prior to stimulation with the indicated concentration of DNP-human serum albumin (DNP-HSA). Calcium influx was monitored by spectrofluorometry as described previously. For analysis of intracellular signaling, cells were pre-loaded with anti-DNP IgE as above, pre-treated with the test compound for 30 min at 37° C. and stimulated with 20 ng/ml DNP-HSA for 5 min. Total cell lysates were then prepared and analyzed for phospho-PKB, phospho-p38^MAPK, phospho-MAPK, Grb-2 (Cell Signalling, Mississauga, Ont) and SHIP^6 by immunoblot analysis. Assay 5) Mouse acute cutaneous anaphylaxis model. 6-8 week old CD1 mice (University of British Columbia Animal Facility, Vancouver, BC) were sensitized to the hapten DNP by cutaneous application of 25 μL of 0.5% dinitrofluorobenzene (DNFB) (Sigma, Oakville, Ont) in acetone to the shaved abdomen of mice for two consecutive days. 24 hrs later, test substances (dissolved in 10 μL of 1:2 DMSO:MeOH) were painted on the right ear while the left ear received vehicle control. 30 min after drug application, DNFB was applied to both ears to induce mast cell degranulation. A 6 mm punch was taken from the ear and immediately frozen on dry ice for subsequent determination of neutrophil myeloperoxidase (MPO) activity. Assay 6) Mouse endotoxemia model. 6-8 week old C57B16 mice (VCHRI Mammalian Model of Human Disease Core Facility, Vancouver, BC) were orally administered the test compound 30 min prior to an IP injection of 2 mg/kg of LPS (E. Coli serotype 0111:B4, Sigma, Oakville, Ont). Blood was drawn 2 hrs later for determination of plasma TNFα by ELISA. Assay 7) In vitro Mulitple Myeloma (MM) assay. The ability of SHIP activators to reduce tumor cell survival was assessed in MM cell lines treated with the test compound. The lines OPM1, OPM2, MM.1S and RPMI 8226 were plated at a density of 1×10^5 cells/mL in 200 μL of medium with various concentrations of the test compound, and viable cell numbers were determined on day 3 and day 5 by trypan blue exclusion. The lines RPMI 8226 and U266 were plated at a density of 1×10^6 cells/mL in 250 μL of medium with various concentrations of the test compound. At day 4, the medium of each culture was replaced by fresh medium containing the same concentration of test compound. […]

[2] = system: Bone marrow derived mast cells; experiment: Calcium influx in mast cells after IgE receptor crosslinking (Example 11); format: cell-based; conditions: 1 hr treatment, anti IgE antibody
Experimental: An assay to determine the inhibition of calcium influx in mast cells by Compound 106 was carried out as follows.
The activation of mast cells by IgE receptor crosslinking leads to an influx of calcium into the cells, followed by degranulation and secretion of pro-inflammatory mediator. Bone marrow derived mast cells were loaded with the fluorescent calcium indicator dye Fura-2 prior to treatment for 1 hr with Compound 106 or PBS carrier. Cells were then stimulated or not with an anti IgE antibody to cross-link the IgE receptors. Calcium influx was then monitored by fluorimetry. The results are depicted in a graph in FIG. 3.

J774.1a macrophage cells [3] = experiment: Macrophage TNF-α NO assay (Assay 3), Griess reagent; format: cell-based; conditions: 10 μg/ml test compound, LPS, supernatants after 24 hr; also: key: a ‘+’ indicates a positive result for desired activity; a ‘−’ indicates a negative result for desired activity
Experimental: as §1

plasma TNFα = experiment: Mouse endotoxemia model (Assay 6), plasma TNFα by ELISA; format: in vivo, mice; conditions: oral, 30 min prior to IP 2 mg/kg LPS, plasma TNFα 2 hrs later
Experimental: as §1, with “6-8 week old C57B16 mice (VCHRI Mammalian Model of Human Disease Core Facility, Vancouver, BC) were orally administered the test compound 30 min prior to an IP injection of 2 mg/kg of LPS (E. Coli serotype 0111:B4, Sigma, Oakville, Ont). Blood was drawn 2 hrs later for determination of plasma TNFα by ELISA. Assay 7) In vitro Mulitple Myeloma (MM) assay.” left out, “exclusion.” for “exclusion. The lines RPMI 8226 and U266 were plated at a density of 1×10^6 cells/mL in 250 μL of medium with various concentrations of the test compound. At day 4, the medium of each culture was replaced by fresh medium containing the same concentration of test compound.”

Cc1cc(OC(=O)C(N)CCCCN)cc2c1[C@]1(C)CCC3C(C)(C)CCC[C@]3(C)[C@H]1C2 (stereo partly drawn) [Compound 106]
inhibition of macrophage TNFα production (J2M macrophage cells): Inhibits Macrophage TNFα Production
Assay 4: Stimulation of mast cells by FcεRI crosslinking, desired activity (Mast cells): +
Assay 2: Macrophage TNF-α production, desired activity (J774.1a macrophage cells [1]): +
inhibition of calcium influx in mast cells [2]: Inhibits Calcium Influx in Mast Cells
Assay 3: Macrophage NO assay, desired activity (J774.1a macrophage cells [3]): +
Assay 6: Mouse endotoxemia model, desired activity (plasma TNFα): +

Source: US20100323990A1, “SHIP 1 MODULATOR PRODRUGS” (THE UNIVERSITY OF BRITISH COLUMBIA, priority 2006, published 2010)
